Reference: US20090176839A1, “FORMULATIONS OF 3-(6-(1-(2,2-DIFLUOROBENZO[D][1,3]DIOXOL-5-YL) CYCLOPROPANECARBOXAMIDO)-3-METHYLPYRIDIN-2-YL)BENZOIC ACID” (priority 2007, published 2009)
Where two headings read alike, the source gives them in different places.

What was measured:
[1] = in vivo; design: species or system dogs; conditions: both sexes, dog
Procedure: (§1) One dog per gender was dosed orally with the vehicle (0.5% methylcellulose+0.5% Tween80 in water), or 25, 50, or 100 mg/kg/day Compound 1 for 7 consecutive days. The dose volume was 5 mL/kg/day for all dose groups. Plasma samples were collected on Days 1 and 7 for TK analysis and viability, clinical observations, body weights, feed consumption, clinical pathology (termination), organ weights, macroscopic observations, and microscopic pathology were evaluated.

[2] = tested on: dogs; test: in vivo; conditions: dog
Procedure: as §1

[3] = Oral pharmacokinetics of Compound 1 in fed or fasted male dogs at 10 mg/kg; assay type: in vivo, male beagle dogs; conditions: for concentration at 48 hr: oral, read-out: Clast
Procedure: Non-validated research grade assays were used for these analyses. All pharmacokinetic studies were conducted using fed animals unless otherwise specified.
The oral pharmacokinetics of Compound 1 were determined under fed and fasted conditions in male beagle dogs following a single 10 mg/kg administration (Table 6). […] The tmax occurred sooner after administration in the fasted state (1.5 hours) than in the fed state (2.7 hours). The variability of the systemic exposure of Compound 1 was higher under fed conditions (CV of 67% for AUC0-INF) than under fasted conditions (CV of 27% for AUC0-INF), possibly due to changes in stomach emptying time under fed conditions.

[4] = Stability of 6 mg/mL aqueous methylcellulose suspension (HPLC, XRPD); assay type: physicochemical; conditions: room temperature; for Peak purity %: 6 mg/mL aqueous methylcellulose suspension
Procedure: A 100 mL stock solution of 0.5% by weight methylcellulose was prepared by stirring 0.5 g of methylcellulose with 99.5 g of purified water until completely dissolved (approximately 24 hours). […] The desired amount of 0.5% methylcellulose stock solution for making a 6 mg/mL based on free base (6.48 mg/mL based on HCl salt) was transferred into the vial and sonicated for 20 minutes and homogenized for approximately 5 minutes.
The methylcellulose formulation was also subjected to HPLC analysis at 0 and 24 hours: […]

[5] = Stability of 6 mg/mL aqueous methylcellulose-polysorbate 80 suspension (HPLC, XRPD, NMR); assay type: physicochemical; conditions: for Peak purity %: 6 mg/mL aqueous methylcellulose-polysorbate 80 suspension, room temperature
Procedure: Methylcellulose (0.5 g) was combined with 99.0 g of purified water in a beaker and stirred in a 60-70° C. water bath for 30′-1 hr. The solution was stirred in a 0° C. ice/water bath for another 30′ or until clear. Polysorbate 80 (0.5 g) was added and stirring at room temperature followed for 30′-1 hr or until a clear solution was obtained.
The desired amount of 0.5% methylcellulose and 0.5% polysorbate 80 stock solution for making a 6 mg/mL based on free base (6.48 mg/mL based on HCl salt) was transferred into the vial and sonicated for 20 minutes with alternate stirring for 1-2 minutes. The solution was homogenized for approximately 1-2 minutes.
As with 0.5% methylcellulose formulation prepared previously, the HCl salt was quickly converted to Compound 1 in Form I at T(0) resulting in a crystalline free form suspension as shown by XRPD (FIG. 10) and confirmed by ^1H NMR analysis (FIGS. 11-13). Additionally, the solid form in suspension at T(0) was recovered an subjected to HPLC analysis: […]

[6] = male, beagle, dog, plasma, po, 10 mg/kg, male dogs, Fasted
[7] = male, beagle, dog, plasma, po, 10 mg/kg, male dogs, Fed

Cc1ccc(NC(=O)C2(c3ccc4c(c3)OC(F)(F)O4)CC2)nc1-c1cccc(C(=O)O)c1 [Compound 1, 3-(6-(1-(2,2-difluorobenzo[d][1,3]dioxol-5-yl)cyclopropanecarboxamido)-3-methylpyridin-2-yl)benzoic acid]
NOAEL at 7 days [1]: 100 mg/kg/day | food consumption, hematologies, coagulations parameters, ECG measurements [2]: no effects | gross lesions and histopathological findings [2]: no test article related gross lesions or histopathological findings | body weight loss ([2]; 100 mg/kg/day): 0.3 kg | clearance ([3]; dog): very low clearance | F ([3]; male dogs, 10 mg/kg, Fasted): 53% | tlast ([3]; male dogs, 10 mg/kg, Fasted): 48 h | F ([3]; male dogs, 10 mg/kg, Fed): 53% | tlast ([3]; male dogs, 10 mg/kg, Fed): 48 h | concentration at 48 hr ([3]; male, beagle, dog, plasma, 10 mg/kg, male dogs, 10 mg/kg, Fasted): 66 ng/mL | concentration at 48 hr ([3]; male, beagle, dog, plasma, 10 mg/kg, male dogs, 10 mg/kg, Fed): 47 ng/mL | half-life ([3]; male, beagle, dog, plasma, po, 10 mg/kg, male dogs, 10 mg/kg, Fasted, read-out: t1/2 (converted)): 6.3 h | half-life ([3]; male, beagle, dog, plasma, po, 10 mg/kg, male dogs, 10 mg/kg, Fed, read-out: t1/2 (converted)): 6.6 h | AUC(0-inf) [3, 6]: 35800 ng·h/mL | Cmax [3, 6]: 7900 ng/mL | Tmax [3, 6]: 1.5 h | AUC(0-inf) [3, 7]: 35700 ng·h/mL | Cmax [3, 7]: 4100 ng/mL | Tmax [3, 7]: 2.7 h | half-life ([3]; male, beagle, dog, plasma, po, administered orally to dogs, read-out: half-life): 5 to 9 h | bioavailability ([3]; male, beagle, plasma, po, dog, 10 mg/kg orally in a methylcellulose suspension): 53% | Peak purity % ([4]; T(0)): 99.41% | Peak purity % ([4]; T(24 h)): 99.37% | physically and chemically stable, time ([4]; methylcellulose formulation): at least 24 hrs | degradation peaks by HPLC [5]: No major degradation peaks were detected | Peak purity % ([5]; T(0)): 98.81% | Peak purity % ([5]; T(24 h)): 98.24% | chemically stable, time ([5]; 24 h, 6 mg/mL): at least 24 hrs
